Reference: a compilation of properties of binary mixtures (doi:10.1016/j.jct.2016.09.024)

Test: xn = mol fraction of the nth substance listed
Details: 100 kPa

CCCC[N+](C)(CCCC)CCCC.O=S(=O)([N-]S(=O)(=O)C(F)(F)F)C(F)(F)F + CCO
speed of sound [m/s]
Details | 293.15 K | 298.15 K | 303.15 K | 308.15 K
x1 = 0.0149 | – | 1146.8 | 1130.4 | 1114.1
x2 = 0 | 1291.7 | 1276 | 1261.1 | –
x2 = 0.0636 | – | 1271.9 | 1257.5 | 1244.1
x2 = 0.0711 | 1285.8 | 1272.2 | – | 1244.1
x2 = 0.1235 | – | 1268.1 | 1254.2 | –
x2 = 0.2012 | 1277.4 | 1263.2 | 1249.4 | 1236.2
x2 = 0.3995 | 1262.3 | – | 1235.2 | 1221.9
x2 = 0.6009 | 1241.4 | 1227.8 | 1214.4 | 1200.8
x2 = 0.7187 | 1224.1 | 1210.4 | 1196.3 | 1182.7
x2 = 0.8118 | 1205.7 | 1192 | – | 1163.3
x2 = 0.8605 | 1194.3 | – | – | 1151.2
x2 = 0.9076 | 1181.8 | 1166.7 | 1151.6 | 1136.7
x2 = 0.93 | 1175.6 | 1160.2 | – | 1129.9
x2 = 0.95 | 1170.7 | – | – | 1123.5
x2 = 0.96 | – | 1152.3 | – | 1120.9
x2 = 0.9702 | 1165.7 | – | 1133.6 | –

CCCC[N+](C)(C)C.O=S(=O)([N-]S(=O)(=O)C(F)(F)F)C(F)(F)F + CCO
speed of sound [m/s]
Details | 293.15 K | 298.15 K | 303.15 K | 308.15 K
x1 = 0.01 | 1160.4 | – | 1126.8 | 1110.1
x2 = 0 | 1239.5 | 1228.9 | 1218.3 | 1208.1
x2 = 0.0605 | 1237.5 | 1226.8 | 1216.1 | 1205.9
x2 = 0.101 | 1235.4 | 1224.6 | 1214 | –
x2 = 0.1991 | – | 1220.2 | 1209.5 | 1199
x2 = 0.3 | 1225.3 | 1214.6 | – | 1193.1
x2 = 0.4096 | 1218.1 | 1206.9 | 1195.8 | 1185
x2 = 0.4998 | 1210.5 | 1199.2 | 1187.9 | –
x2 = 0.5996 | 1200.8 | 1189.1 | – | 1166.4
x2 = 0.6504 | 1195.1 | 1183.1 | – | 1159.6
x2 = 0.7501 | – | 1169.2 | 1156.6 | 1144.4
x2 = 0.8514 | 1166.7 | 1152.8 | – | 1126.2
x2 = 0.88 | 1163.4 | – | 1134.6 | 1117
x2 = 0.92 | 1158.1 | 1143.6 | 1129.8 | 1114.5
x2 = 0.93 | 1158 | 1142.8 | 1128 | 1113.2
x2 = 0.94 | 1157.5 | 1142.1 | 1127 | 1112.2
x2 = 0.9609 | 1157.2 | 1141.7 | 1126 | 1110.5
x2 = 0.97 | – | 1142.1 | – | 1110.4
x2 = 0.98 | – | 1142.2 | 1125.9 | 1109.9

C[N+](C)(C)CCO.O=S(=O)([N-]S(=O)(=O)C(F)(F)F)C(F)(F)F + CCO
speed of sound [m/s]
Details | 293.15 K | 298.15 K | 303.15 K | 308.15 K
x2 = 0.7051 | 1221.8 | 1207.6 | 1195.3 | 1183.5
x2 = 0.801 | – | 1183.2 | 1170 | 1157.2
x2 = 0.9002 | 1172.1 | 1156.6 | 1142.5 | 1128.2
x2 = 0.9601 | 1162.4 | 1145.9 | 1130.3 | 1115

CCO + CCCC[N+](C)(CCCC)CCCC.O=S(=O)([N-]S(=O)(=O)C(F)(F)F)C(F)(F)F
x1 = 1
Details | speed of sound [m/s]
293.15 K | 1160.4
298.15 K | 1143.3
303.15 K | 1126.1

CCO + C[N+](C)(C)CCO.O=S(=O)([N-]S(=O)(=O)C(F)(F)F)C(F)(F)F
x1 = 1
Details | speed of sound [m/s]
303.15 K | 1126.1
308.15 K | 1108.9

CCO + CCCC[N+](C)(C)C.O=S(=O)([N-]S(=O)(=O)C(F)(F)F)C(F)(F)F
x1 = 1
Details | speed of sound [m/s]
293.15 K | 1160.4
308.15 K | 1108.9
